{"source": "patent US20060167083A1", "about": "“Therapeutic methods and compositions involving isoflav-3-ene and isoflavan structures” (priority 2002, published 2006)", "format_in_all_cases": "biochemical", "key": {"human topo I [1]": {"target": "T1, human topo I (Homo sapiens, UniProt P11387)", "T1 construct": "purchased Topogen (Columbus, Ohio)", "T1 sequence (P11387 1-765)": "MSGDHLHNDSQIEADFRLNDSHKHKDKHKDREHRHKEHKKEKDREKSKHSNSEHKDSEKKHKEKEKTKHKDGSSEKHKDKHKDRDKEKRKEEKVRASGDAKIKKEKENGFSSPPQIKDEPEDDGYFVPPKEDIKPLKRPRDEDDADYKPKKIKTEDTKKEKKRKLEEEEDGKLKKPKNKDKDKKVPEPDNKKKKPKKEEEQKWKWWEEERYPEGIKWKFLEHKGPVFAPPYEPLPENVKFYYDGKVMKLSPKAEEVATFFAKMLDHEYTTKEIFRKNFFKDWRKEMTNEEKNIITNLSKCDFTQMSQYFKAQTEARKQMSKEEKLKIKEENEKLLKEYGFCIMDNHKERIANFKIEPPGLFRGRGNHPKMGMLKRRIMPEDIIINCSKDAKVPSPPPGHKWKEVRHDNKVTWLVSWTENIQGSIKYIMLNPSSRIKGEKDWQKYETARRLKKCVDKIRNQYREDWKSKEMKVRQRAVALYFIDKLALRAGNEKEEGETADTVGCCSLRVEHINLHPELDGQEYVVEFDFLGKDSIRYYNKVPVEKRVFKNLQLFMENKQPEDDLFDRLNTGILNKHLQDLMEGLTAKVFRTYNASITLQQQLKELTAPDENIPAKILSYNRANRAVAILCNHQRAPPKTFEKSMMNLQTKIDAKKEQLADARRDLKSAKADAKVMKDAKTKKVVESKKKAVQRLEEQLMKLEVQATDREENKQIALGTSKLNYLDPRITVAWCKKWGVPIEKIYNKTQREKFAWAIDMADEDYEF", "assay": "Topo I-mediated plasmid relaxation assay", "settings": "10 μg/ml", "quoted_text": "Topo I activity was determined by converting supercoiled pUC8 DNA (SC) into its relaxed from (REL).\nFor the determination of topoisomerase (topo) I catalytic activity, pUC8 DNA was used as the substrate in a reaction volume of 20 μl containing the following: 10 mM Tris-HCl, pH 7.9, 1 mM EDTA, 150 mM NaCl, 0.1% BSA, 0.1 mM spermidine, 5% glycerol, and 2 units of purified human topo I. The inhibitor, when applicable, was added as indicated, and the reaction was initiated by the addition of the enzyme. Reactions were carried out at 37° C. for 30 min. Gel electrophoresis was performed at 4 V/cm for 5 h in Tris-borate-EDTA buffer. For the quantitative determination of topo I activity, photographic negatives were scanned. The area representing supercoiled DNA, migrating as a single band at the bottom of the gel, was determined. The concentrations of the inhibitor that prevented 50% of the supercoiled DNA from being converted into relaxed DNA (IC50 values) were determined by averaging the data from at least three experiments."}, "human topo I [2]": {"target": "T1, human topo I", "assay": "Topo I-mediated plasmid-nicking assay", "settings": "10 and 100 μg/ml (FIG. 4 lanes 5 and 6)", "quoted_text": "Single-strand DNA breakage was determined by converting relaxed (REL) or supercoiled (SC) pUC8 DNA to the nicked form (NIC).\nUnder the electrophoretic conditions that were used in the experiment shown in FIG. 4, covalently closed circular (supercoiled or relaxed) plasmid DNA migrates on the bottom of the gel. In the presence of a topo I poison that stabilises the cleavable complex, and following denaturation and degradation of the enzyme with proteinase K/SDS, the resulting nicked DNA migrates on the top of the gel.\nTopo I poisons enhance topo I-mediated pUC8 DNA cleavage under the reaction conditions provided by the supplier of the enzyme (Topogen, Inc.). Briefly, 20 μl of reaction mixtures contained 10 mM Tris-HCl, pH 7.5, 1 mM EDTA, 100 mM NaCl, 1 μl of the test agent (or solvent), 0.5 μg of pUC8, and 10 units of human topo I (added last). After a 30-min incubation at 37° C., SDS-proteinase K was added, and, following a 30-min incubation at 37° C., samples were extracted with CHCl3-isopropanol and electrophoresed on a 1% agarose gel containing 0.5 μg/ml ethidium bromide. Gels were photographed, and photographic negatives were scanned."}, "human topo II": {"target": "T2, human topo II (Homo sapiens, UniProt P11388)", "T2 construct": "purchased Topogen (Columbus, Ohio)", "T2 sequence (P11388 whole entry)": "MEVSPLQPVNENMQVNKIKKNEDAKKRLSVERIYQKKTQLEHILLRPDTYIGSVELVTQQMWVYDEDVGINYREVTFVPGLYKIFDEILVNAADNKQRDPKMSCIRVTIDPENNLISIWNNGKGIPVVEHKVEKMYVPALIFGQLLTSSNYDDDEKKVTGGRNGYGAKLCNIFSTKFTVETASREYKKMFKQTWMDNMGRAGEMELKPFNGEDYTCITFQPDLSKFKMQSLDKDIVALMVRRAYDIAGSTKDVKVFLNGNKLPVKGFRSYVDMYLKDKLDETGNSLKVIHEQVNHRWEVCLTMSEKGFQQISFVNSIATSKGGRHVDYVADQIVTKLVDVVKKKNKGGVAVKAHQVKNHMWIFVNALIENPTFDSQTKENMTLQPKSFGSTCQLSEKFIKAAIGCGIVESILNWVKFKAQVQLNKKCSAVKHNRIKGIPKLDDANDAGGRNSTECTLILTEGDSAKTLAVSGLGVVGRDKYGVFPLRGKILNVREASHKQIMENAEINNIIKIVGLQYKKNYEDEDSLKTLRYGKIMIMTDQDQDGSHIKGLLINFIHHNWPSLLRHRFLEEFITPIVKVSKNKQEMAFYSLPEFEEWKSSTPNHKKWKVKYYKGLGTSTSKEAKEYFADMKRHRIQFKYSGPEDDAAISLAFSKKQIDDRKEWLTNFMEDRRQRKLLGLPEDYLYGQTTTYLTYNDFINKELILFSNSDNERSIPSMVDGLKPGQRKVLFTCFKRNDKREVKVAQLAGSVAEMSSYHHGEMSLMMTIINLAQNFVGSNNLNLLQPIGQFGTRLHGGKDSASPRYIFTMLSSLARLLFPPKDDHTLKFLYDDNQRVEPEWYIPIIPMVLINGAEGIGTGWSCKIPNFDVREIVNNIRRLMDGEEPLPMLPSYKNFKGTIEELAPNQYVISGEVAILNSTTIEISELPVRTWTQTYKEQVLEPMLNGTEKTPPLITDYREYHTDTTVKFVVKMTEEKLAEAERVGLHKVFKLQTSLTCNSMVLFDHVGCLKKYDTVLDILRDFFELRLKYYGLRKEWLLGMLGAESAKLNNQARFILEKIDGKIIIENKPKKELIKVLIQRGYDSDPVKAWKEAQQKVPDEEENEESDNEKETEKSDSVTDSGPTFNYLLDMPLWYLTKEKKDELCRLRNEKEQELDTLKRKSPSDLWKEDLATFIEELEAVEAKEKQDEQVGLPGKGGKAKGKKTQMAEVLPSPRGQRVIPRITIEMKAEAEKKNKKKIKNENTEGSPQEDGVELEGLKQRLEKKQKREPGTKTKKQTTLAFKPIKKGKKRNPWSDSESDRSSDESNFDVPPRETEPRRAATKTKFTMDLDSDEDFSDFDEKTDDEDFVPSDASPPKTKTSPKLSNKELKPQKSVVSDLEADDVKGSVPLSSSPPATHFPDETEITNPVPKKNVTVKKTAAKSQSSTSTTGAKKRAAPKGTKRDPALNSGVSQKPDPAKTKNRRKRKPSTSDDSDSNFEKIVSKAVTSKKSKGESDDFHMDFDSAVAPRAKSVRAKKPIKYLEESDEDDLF", "assay": "Topo II-mediated plasmid linearisation assay", "method": "FIG. 3 represents an assay for determining the effect of dehydroequol on double-stranded DNA cleavage. pRYG DNA was incubated with ten units of human topo II (lanes 2-6) in the absence (lane 1) or presence of 10, 30, or 100 μg/ml dehydroequol (lanes 2-4), or 30 μg/ml genistein (lane 5), or 10 μg/ml VP-16 (lane 6). Lane 7, linear pUC8 DNA marker. Double-strand DNA breakage was determined by converting relaxed (REL) or supercoiled (SC) pRYG DNA to the linear (LIN) form.\nA linearisation assay was employed to determine if dehydroequol is a topo II poison. Double-strand breakage results in the appearance of linear DNA. […] This effect, which was evident at 10 μg/ml, peaked at 30 μg/ml.\nTopo II poisons enhance topo II-mediated DNA cleavage and can be identified with the linearisation assay under the reaction conditions provided by the supplier of the enzyme (Topogen, Inc.). Briefly, 20-μl reaction mixtures contained 30 mM Tris-HCl, pH 7.6, 3 mM ATP, 15 mM β-mercaptoethanol, 8 mM MgCl2, 60 mM NaCl, 1 μl of the test agent (or solvent), 0.3 μg of pRYG, and 10 units of human topo II (added last). After a 15-min incubation at 37° C., SDS-proteinase K was added, and following a 15 min incubation at 37° C., samples were extracted with CHCl3-isopropanol and electrophoresis was performed on a 1% agarose gel containing ethidium bromide. Gels were photographed, and photographic negatives were scanned."}}, "data": [{"smiles": "CC[C@@]1(O)C(=O)OCc2c1cc1n(c2=O)Cc2cc3ccccc3nc2-1", "note": "[Camptothecin, reference compound]", "values": [{"measurement": "inhibition of topo I-catalysed relaxation of pUC8 DNA (positive control)", "setting": "human topo I [1]", "value": "prevents pUC8 DNA relaxation"}, {"measurement": "topo I-mediated single-strand DNA breakage (nicked DNA), positive control", "setting": "human topo I [2]", "value": "produced single-strand DNA cleavage"}]}, {"smiles": "O=c1c(-c2ccc(O)cc2)coc2cc(O)cc(O)c12", "note": "[genistein, reference compound]", "values": [{"measurement": "concentration producing detectable (comparable) topo II-mediated linear plasmid DNA", "setting": "human topo II", "value": 30, "unit": "µg/mL"}]}]}
